Laboratory results taken from paper PMC5719405, “Sex-related pharmacokinetic differences and mechanisms of metapristone (RU486 metabolite)” (Scientific Reports, 2017).
Where two headings read alike, the source gives them in different places.

Assays:
[1] = Single oral dose pharmacokinetics of metapristone in beagle dogs, non-compartmental analysis; format: in vivo; conditions: for AUC(0-inf) / AUC(0-t) / CL/F / Cmax / Tmax / Vd/F / half-life / MRT last: beagle, dog, plasma, po; for MRT last: read-out: MRT (0-t)
Procedure: (§1) For pharmacokinetic study, rats were fasted overnight with free access to water using procedures reported previously. Ninety-six SD rats (forty-eight males and forty-eight females) were randomly divided into […] single-dose groups. Rats (six animals/sex/dose) were given a single oral dose of 22.5, 45 and 90 mg/kg metapristone (in soybean oil solution) by intragastric administration or 10 mg/kg metapristone by intravenous bolus injection. Rat blood samples (0.25 mL) were collected from the ocular vein into heparinized tubes prior to and at 0 (before administration), 0.5, 1.0, 1.5, 2.0, 4.0, 6.0, 8.0, 12, 24, 36 and 48 h post-dosing in female rats or 0.5, 1.0, 1.5, 2.0, 4.0, 6.0, 8.0, 12, 24, 30 and 36 h post-dosing in male rats. In the repeated dose study twenty-four rats (six animals/sex/dose) received the same dosing regimen at 45 mg/kg metapristone for 10 days. Blood samples were collected after oral administration on day 1 and 10 at T max. The samples were stored at −80 °C until analysis. Beagle dogs (three animals/sex/dose) were dosed by gavage at 5.62, 11.25, 22.5 mg/kg metapristone (in soybean oil solution). Dog blood (0.25 mL) was withdrawn from the jugular vein at 0.5, 1.0, 2.0, 4.0, 6.0, 8.0, 10, 12, 24 and 48 h after a single oral administration.
The plasma samples obtained by centrifugation at 4000 g for 10 min and stored at −80 °Cuntil analysis. To each 100 µL of plasma sample, 50 µL of internal standard solution were added. Metapristone was then separated and analyzed by the LC/MS/MS method according to the previously described procedures. Peak area ratios of metapristone to the internal standard were plotted against theoretical concentrations. The maximum plasma concentration (C max), the time to reach C max (T max) were determined directly from experimental data. The other pharmacokinetic parameters such as elimination half-life (t 1/2), and mean residence time (MRT) were calculated by using the non-compartmental pharmacokinetics data analysis software of DAS version 3.2 (Bio Guider Co., Shanghai, China). The area under the plasma concentration-time curve from zero to infinity was calculated by using the linear trapezoidal rule with extrapolation to infinity with terminal constant eliminate rate (k e). Bioavailability was calculated as (AUCp.o./AUCi.v.) x (dosei.v./ dosep.o.) 100% as we previously described.

[2] = Repeated 10-day oral dosing, accumulation of metapristone in blood; format: in vivo; conditions: rats, 45 mg/kg/day p.o. for 10 days, 6 h post dosing
Procedure: In order to determine whether metapristone accumulated in blood over a long period of multiple dose administration, metapristone levels in blood were monitored at 6 h post dosing on day 1 and 10 during a consecutive 10-day oral dosing period with metapristone at 45 mg/kg/day.
as §1, with “Beagle dogs (three animals/sex/dose) were dosed by gavage at 5.62, 11.25, 22.5 mg/kg metapristone (in soybean oil solution). Dog blood (0.25 mL) was withdrawn from the jugular vein at 0.5, 1.0, 2.0, 4.0, 6.0, 8.0, 10, 12, 24 and 48 h after a single oral administration.” left out

[3] = Tissue distribution study with metapristone; format: in vivo, SD rats; conditions: female rats, 45 mg/kg single oral dose
Procedure: Sixteen SD rats (four females/group) were dosed by gavage with 45 mg/kg of metapristone to carry out tissue distribution study, as we previously described. Rats were sacrificed at 6 h and 24 h after dosing in order to collect blood, heart, liver, spleen, lung, kidney, brain, intestine and ovary for quantitative analysis of metapristone concentrations. Tissue samples were immediately washed in normal saline to remove the blood or content, and blotted dry with filter paper. Tissue samples (0.2 g) were individually homogenized with normal saline (0.8 mL). Tissue homogenates (100 µL) were processed as the plasma samples. The detailed method validation for analysis of metapristone in plasma, tissue homogenates, and liver microsomal samples is provided in the Supplementary materials.

[4] = In vitro microsomal metabolism of metapristone; format: in vitro ADME, rat; conditions: for metapristone remained: 2 h; for degradation of metapristone: 37 °C, 1 h
Procedure: The microsomal assay was similar to that described previously. Briefly, metapristone (6, 9, 13.5 µM) was incubated with male and female at liver microsomes, respectively, in an NADPH-generating system containing 1 mM NADP, 10 mM glucose-6-phosphate, 1 U/mL glucose-6-phosphate dehydrogenase and 4 mM MgCl2 in 100 mM potassium phosphate buffer (pH 7.4). Reaction mixtures were prepared in duplicate and were pre-incubated for 5 min at 37 °C. The actions were then initiated by the addition of NADPH solution. The final volume of each reaction mixture was 200 µL. Negative control reactions were prepared by incubating mixtures that excluded metapristone from the mixture. For negative control incubation where microsomes were excluded, they were added back to the reaction mixture after quenching with methanol. Samples were removed at 0, 40, 60, 80,100, 120 and 150 min, and vortex-mixed with cold ethyl acetate to stop the reaction. After centrifugation, a portion of each resulting supernatant was analyzed by mass spectrometry for unchanged metapristone.

[5] = rats, 12.5, 50 and 200 mg/kg/day; only occurred at 200 mg/kg/day; cited from earlier work
cancer cells = conditions: cited from earlier work
[6] = 5.62, 11.25 and 22.5 mg/kg p.o.

- C max and AUC in female dogs relative to male dogs (greater) [1, 6]: 1–2.4 fold
- CL/F in female dogs relative to male dogs (lower) [1, 6]: 1.5–3.6 fold
- V d /F in female dogs relative to male dogs (lower) [1, 6]: 1.3–2.38 fold
- AUC(0-inf) ([1]; female dogs, p.o. 5.6 mg/kg): 580 ± 120 ng·h/mL
- AUC(0-t) ([1]; female dogs, p.o. 5.6 mg/kg): 560 ± 110 ng·h/mL
- CL/F ([1]; female dogs, p.o. 5.6 mg/kg): 165 mL/min/kg
- Cmax ([1]; female dogs, p.o. 5.6 mg/kg): 70 ± 10 ng/mL
- Tmax ([1]; female dogs, p.o. 5.6 mg/kg): 1.67 ± 0.57 h
- Vd/F ([1]; female dogs, p.o. 5.6 mg/kg): 126 ± 7.1 L/kg
- half-life ([1]; female dogs, p.o. 5.6 mg/kg): 8.05 ± 1.12 h
- MRT last ([1]; female dogs, p.o. 5.6 mg/kg): 7.23 ± 1.69 h
- AUC(0-inf) ([1]; female dogs, p.o. 11.25 mg/kg): 1330 ± 110 ng·h/mL
- AUC(0-t) ([1]; female dogs, p.o. 11.25 mg/kg): 1280 ± 100 ng·h/mL
- CL/F ([1]; female dogs, p.o. 11.25 mg/kg): 141 mL/min/kg
- Cmax ([1]; female dogs, p.o. 11.25 mg/kg): 190 ± 30 ng/mL
- Tmax ([1]; female dogs, p.o. 11.25 mg/kg): 1.67 ± 0.57 h
- Vd/F ([1]; female dogs, p.o. 11.25 mg/kg): 105 ± 9.17 L/kg
- half-life ([1]; female dogs, p.o. 11.25 mg/kg): 8.57 ± 1.12 h
- MRT last ([1]; female dogs, p.o. 11.25 mg/kg): 8.62 ± 0.56 h
- AUC(0-inf) ([1]; female dogs, p.o. 22.5 mg/kg): 2560 ± 210 ng·h/mL
- AUC(0-t) ([1]; female dogs, p.o. 22.5 mg/kg): 2400 ± 150 ng·h/mL
- CL/F ([1]; female dogs, p.o. 22.5 mg/kg): 147 mL/min/kg
- Cmax ([1]; female dogs, p.o. 22.5 mg/kg): 380 ± 10 ng/mL
- Tmax ([1]; female dogs, p.o. 22.5 mg/kg): 1.66 ± 0.57 h
- Vd/F ([1]; female dogs, p.o. 22.5 mg/kg): 89.2 ± 14.1 L/kg
- half-life ([1]; female dogs, p.o. 22.5 mg/kg): 7.19 ± 2.83 h
- MRT last ([1]; female dogs, p.o. 22.5 mg/kg): 7 ± 0.61 h
- AUC(0-inf) ([1]; male dogs, p.o. 5.6 mg/kg): 230 ± 50 ng·h/mL
- AUC(0-t) ([1]; male dogs, p.o. 5.6 mg/kg): 210 ± 30 ng·h/mL
- CL/F ([1]; male dogs, p.o. 5.6 mg/kg): 266 mL/min/kg
- Cmax ([1]; male dogs, p.o. 5.6 mg/kg): 50 ng/mL
- Tmax ([1]; male dogs, p.o. 5.6 mg/kg): 2 h
- Vd/F ([1]; male dogs, p.o. 5.6 mg/kg): 187 ± 8.21 L/kg
- half-life ([1]; male dogs, p.o. 5.6 mg/kg): 8.18 ± 2.9 h
- MRT last ([1]; male dogs, p.o. 5.6 mg/kg): 7.16 ± 1.12 h
- AUC(0-inf) ([1]; male dogs, p.o. 11.25 mg/kg): 770 ± 110 ng·h/mL
- AUC(0-t) ([1]; male dogs, p.o. 11.25 mg/kg): 750 ± 100 ng·h/mL
- CL/F ([1]; male dogs, p.o. 11.25 mg/kg): 241 mL/min/kg
- Cmax ([1]; male dogs, p.o. 11.25 mg/kg): 150 ± 30 ng/mL
- Tmax ([1]; male dogs, p.o. 11.25 mg/kg): 2 h
- Vd/F ([1]; male dogs, p.o. 11.25 mg/kg): 136 ± 13.1 L/kg
- half-life ([1]; male dogs, p.o. 11.25 mg/kg): 5.54 ± 2.3 h
- MRT last ([1]; male dogs, p.o. 11.25 mg/kg): 5.68 ± 1.1 h
- AUC(0-inf) ([1]; male dogs, p.o. 22.5 mg/kg): 1600 ± 340 ng·h/mL
- AUC(0-t) ([1]; male dogs, p.o. 22.5 mg/kg): 1560 ± 310 ng·h/mL
- CL/F ([1]; male dogs, p.o. 22.5 mg/kg): 210 mL/min/kg
- Cmax ([1]; male dogs, p.o. 22.5 mg/kg): 300 ± 20 ng/mL
- Tmax ([1]; male dogs, p.o. 22.5 mg/kg): 2 h
- Vd/F ([1]; male dogs, p.o. 22.5 mg/kg): 123 ± 15 L/kg
- half-life ([1]; male dogs, p.o. 22.5 mg/kg): 6.79 ± 2.81 h
- MRT last ([1]; male dogs, p.o. 22.5 mg/kg): 6.18 ± 0.34 h
- increase of Cmax for female dogs versus male dogs ([1]; p.o. 5.6 mg/kg): 40%
- accumulation of metapristone in blood, day 10 versus day 1 [2]: about 6 fold
- concentration at 6 h ([3]; Sprague-Dawley, rat, liver, 6 h): 222000 ± 23000 ng/g
- metapristone in rat brain [3]: detected
- metapristone remained ([4]; female rat liver microsomes, 6 µM): 21.9%
- metapristone remained ([4]; female rat liver microsomes, 9 µM): 27.2%
- metapristone remained ([4]; female rat liver microsomes, 13.5 µM): 37.3%
- degradation of metapristone ([4]; female rat liver microsomes, 6, 9 and 13.5 µM): 35.1–48.9%
- metapristone remained ([4]; male rat liver microsomes, 6 µM): 10.2%
- metapristone remained ([4]; male rat liver microsomes, 9 µM): 14.2%
- metapristone remained ([4]; male rat liver microsomes, 13.5 µM): 29.6%
- degradation of metapristone ([4]; male rat liver microsomes, 6, 9 and 13.5 µM): 47.4–67.6%
SMILES: CC#C[C@]1(O)CC[C@H]2[C@@H]3CCC4=CC(=O)CCC4=C3[C@@H](c3ccc(NC)cc3)C[C@@]21C [metapristone, N-monodemethyl mifepristone]
- hepatotoxicity after thirty-day oral administration [5]: reversible hepatotoxicity
- effect on cancer cells (cancer cells): cytostatic effect
